Type in all cases: cell-based, human
Series [1] relates to osteopontin. Nature of the series: Western blot of osteopontin expression after exposure to ASOs. Particulars: MDA-MB231, lipofectamine, 10 μM.
In series [2] the test system is osteonectin. Nature of the series: Western blot of osteonectin expression after exposure to ASOs. Particulars: for osteonectin expression in relation to untreated control (100%): single exposure, lipofectamine, 10 μM. For orientation: Immunoblotting shows a protein as a band on a membrane.
Series [3] relates to MDA-MB-231 breast cancer cells. Nature of the series: Clonogenicity assay (colony formation). Particulars: for % Control / Mean colony no.: Experiment II, single treatment; for Mean colony no.: control 705; for inhibition of colony formation (colony growth inhibition): single exposure. Here is the method:
For determining the response of MDA-MB-231 colony formation to exposure with antisense oligonucleotides and erucylphospho-NNN-trimethylpropanolamine (ErPC3) the following procedure was used. MDA-MB-231 cells were treated for various periods of time (see below), harvested and counted. Cells (5000) were then transferred into semi-solid medium containing 0.8t RPMI-methylcellulose and 30% FBS. Cells were plated onto 3.5 cm Petri-dishes (1 ml/dish) (NUNC, Wiesbaden, Germany) and usual cell culture conditions (37° C., 5% CO2 in humidified air) were applied. Colony formation (clusters of 30 or more cells) was visualized by staining with 3-[4,5-dimethylthiazol-2-yl]-2,5-diphenyltetrazolium-bromide (MTT; Serva, Heidelberg, Germany) and the resulting dark blue colonies were scored by an inverted microscope after 5-7 days. At least three dishes per treatment protocol were used.
Pending on the duration of treatment, 1×10^5-3×10^5 cells were transferred onto 6 well plates (Nunc, Wiesbaden, Germany) and grown for 24 h. For transfection, ASO stock solutions were prepared in medium without FBS. According to the protocol of the manufacturer, the respective ASO stock solution was mixed with lipofectamine to allow ASO-liposome complexes to form. To 200 μl medium containing ASO quantities resulting in 10 μM (Western blot and in vivo model) and in 5, 10, or 20 μM (clonogenicity assay) final ASO-concentrations, an equal volume of medium without FBS was added containing 5, 10, or 20 μl lipofectamine, respectively. In addition to the ASO treatment, a NSO control (20 μM final concentration with 20 μl lipofectamine) and a lipofectamine control (20 μl) were used. […] After 12 h the medium was changed, and cells were further grown for 48-72 h. In the case of a sequential combination treatment this first cycle was repeated with the respective combination partner.
The alkylphosphocholine ErPC3 was synthesized and provided by Prof. H. Eibl (MPI of Biophysical Chemistry, Göttingen, FRG). For treating MDA-MB-231 cells, ErPC3 which was kept as stock solution in ethanol and PBS (10 mM; ratio of diluents 1:1; V:V), was diluted in PBS resulting in final concentrations of 10, 14, and 20 μM. The medium containing ErPC3 was changed after 24 h in all experiments and the cells were further grown for 48-72 h without ErPC3 (for details of sequential exposure see below).
Sequential combination treatment consisted of two or three treatment cycles. The two cycle treatment started either with the ASO and was followed by ErPC3 or was performed with the reverse sequence. The three cycle treatment started either with two cycles of ASO followed by ErPC3 or an initial exposure to ErPC3 was followed by two cycles with an ASO.
Colony counts are presented as mean with corresponding standard deviation. For comparison of incidences between treatment groups the x^2 test was used and for comparison of the lesion sizes the Kruskal-Wallis test was applied. P values≦0.05 were considered significant. Predicted theoretical values of combinations were calculated according to the equation: C=a×b/100, where a and b are colony counts in percent of untreated control obtained in response to single agents. For each concentration applied theoretical values were calculated and compared with the real value of the combination. In addition, isobologram and multiple drug effect analysis was examined by a suitable program (CalcuSyn, Biosoft, Ferguson, USA) to study the nature of the interaction observed. For this purpose, the dose-effect curve for each drug alone was determined based on the experimental observations using the median-effect principle; the combination index (CI) for each combination was then calculated according to the following equation:
CI=(D)1/(Dx)1+(D)2/(Dx)2+(D1)×(D2)/(Dx)1×(Dx)2
where (D)1 and (D)2 are the doses of drug 1 and drug 2 that have x effect when used in combination and (Dx)1 and (Dx)2 are the doses of drug 1 and drug 2 that have the same x effect when used alone. […]

[4] abbreviates: MDA-MB231^F (growing without FBS).

Marks after values point to notes of the source that are not given here.

For “5′-ATGTGGCCACAGCATCTGGG-3′ (antisense ATGTGGCCACAGCATCTGGG; all phosphorothioate, sugars by position and methylation of C not given here) [ASO-OPN-8]”, the “osteopontin expression in relation to untreated control (100%)” value (shortened to “osteopontin expression in relation … (100%)”) was determined as 48% in series [1] (single exposure) and 97% in series [1] (twofold exposure).
Consider “5′-GAATCCGGTACTGTGGAAGG-3′ (antisense GAATCCGGTACTGTGGAAGG; all phosphorothioate, sugars by position and methylation of C not given here) [ASO-ON-8]”, for which the “osteonectin expression in relation to untreated control (100%)” value (shortened to “osteonectin expression in relation … (100%)”) in series [2] (MDA-MB231) was 54%; in series [2] (setting [4]), 38%; in series [2] (MDA-MB435s), 46%.
With “5′-GTTCAGGTCCTGGGCAACGG-3 (antisense GTTCAGGTCCTGGGCAACGG; all phosphorothioate, sugars by position and methylation of C not given here) [ASO-OPN-3]”, the figures for the “osteopontin expression in relation … (100%)” value in series [1] (single exposure) and in series [1] (twofold exposure) were 32% and 38%, respectively.
On to “5′-GGGGGCTGGGCAGCTGGTGG-3′ (antisense GGGGGCTGGGCAGCTGGTGG; all phosphorothioate, sugars by position and methylation of C not given here) [ASO-ON-3]”, for which the “osteonectin expression in relation … (100%)” value in series [2] (MDA-MB231) is 25%; in series [2] (setting [4]) it was 22%; in series [2] (MDA-MB435s), 29%. For the same substance, the decrease of osteonectin in series [2] (MDA-MB-231 cells) was 75%. The “maximum inhibition of protein expression / suppression of protein level (ON)” value in series [2] (MDA-MB-231 cells, Western blot) is 75%. In addition, the “% Control” value in series [3] (5 μM) amounted to 92%; in series [3] (10 μM), 82%; in series [3] (20 μM), 73%. Moreover, the Mean colony no. is reported as 648^6) in series [3] (5 μM), 576^7) in series [3] (10 μM) and 514 in series [3] (20 μM). The “inhibition of colony formation (colony growth inhibition)” value in series [3] (5 μM) was found to be 8%; in series [3] (10 μM) it was 14%; in series [3] (20 μM), 27%; in series [3] (20 μM, listed as ASO-ON-03, 20 µM) it was 21%.
Take “5′-GTGGCCACAGCATCTGGGTA-3′ [ASO-OPN-6] (antisense GTGGCCACAGCATCTGGGTA; all phosphorothioate, sugars by position and methylation of C not given here)”: the “osteopontin expression in relation … (100%)” value in series [1] (single exposure) was 45%; in series [1] (twofold exposure), 68%.
The matching figures for “5′-CTCATGGTAGTGAGTTTTCC-3′ (antisense CTCATGGTAGTGAGTTTTCC; all phosphorothioate, sugars by position and methylation of C not given here) [ASO-OPN-1]”: 25^2)3) % and 34^2)3) %.
In the case of “5′-GGTCTGCGAAACTTCTTAGA-3′ [ASO-OPN-9]”, the “osteopontin expression in relation … (100%)” value in series [1] (twofold exposure) came out at 74%.
For “5′-AGGTCACAGGTCTCGAAAAA-3′ (antisense AGGTCACAGGTCTCGAAAAA; all phosphorothioate, sugars by position and methylation of C not given here) [ASO-ON-6]”, the “osteonectin expression in relation … (100%)” value worked out at 52% in series [2] (MDA-MB231), 44% in series [2] (setting [4]) and 56% in series [2] (MDA-MB435s).
Regarding “5′-TCAGGTCTGCGAAACTTCTT-3′ [ASO-OPN-10]”, the “osteopontin expression in relation … (100%)” value in series [1] (twofold exposure) is listed as 86%.
For “5′-TTGAAGTTTCTCTTGATTAA-3′ (antisense TTGAAGTTTCTCTTGATTAA; all phosphorothioate, sugars by position and methylation of C not given here) [ASO-ON-10]”, the “osteonectin expression in relation … (100%)” value was 46% in series [2] (MDA-MB231), 35% in series [2] (setting [4]) and 46% in series [2] (MDA-MB435s).
For “5′-AGATCCAGGCCCTCATGGTG -3′ (antisense AGATCCAGGCCCTCATGGTG; all phosphorothioate, sugars by position and methylation of C not given here) [ASO-ON-1]”, the “osteonectin expression in relation … (100%)” value in series [2] (MDA-MB231) is 39^3) %; in series [2] (setting [4]), 44%; in series [2] (MDA-MB435s) it was 46%.
Turning to “5′-ATGTTATAGTTCTTCTCGAA-3′ [ASO-ON-5]”, the “osteonectin expression in relation … (100%)” value in series [2] (MDA-MB231) was determined as 30%; in series [2] (setting [4]) it was 22%; in series [2] (MDA-MB435s), 27%. In series [2] (MDA-MB-231 cells), this substance gave a decrease of osteonectin of 70%.
As for “5′- TGTACTTGTCATTGTCCAGG-3′ (antisense TGTACTTGTCATTGTCCAGG; all phosphorothioate, sugars by position and methylation of C not given here) [ASO-ON-7]”, the “osteonectin expression in relation … (100%)” value is reported as 50% in series [2] (MDA-MB231), 32% in series [2] (setting [4]) and 64% in series [2] (MDA-MB435s).
On to “5′-ACACTAACTTAAAAAACAAA-3′ (antisense ACACTAACTTAAAAAACAAA; all phosphorothioate, sugars by position and methylation of C not given here) [ASO-OPN-5]”, for which the results for the “osteopontin expression in relation … (100%)” value in series [1] (single exposure) and in series [1] (twofold exposure) were 43% and 80%, respectively.
Consider “5′-CAAACATTTTAAACATTGGG-3′ (antisense CAAACATTTTAAACATTGGG; all phosphorothioate, sugars by position and methylation of C not given here) [ASO-ON-9]”, for which the “osteonectin expression in relation … (100%)” value in series [2] (MDA-MB231) was found to be 37%; in series [2] (setting [4]) it was 21%; in series [2] (MDA-MB435s), 49%.
“5′-TTCAGGTCCTGGGCAACGGG-3′ [ASO-OPN-2]”: the “osteopontin expression in relation … (100%)” value in series [1] (single exposure) stood at 45%; in series [1] (twofold exposure), 60%.
Turning to “5′-GTGGCCACAGCATCTGGGTA-3′ [ASO-OPN-7] (antisense GTGGCCACAGCATCTGGGTA; all phosphorothioate, sugars by position and methylation of C not given here)”, the figures for the “osteopontin expression in relation … (100%)” value in series [1] (single exposure) and in series [1] (twofold exposure) were 31% and 69%, respectively.

For the origin of these results see patent US20090017103A1, “Antisense oligonucleotides for prevention of metastasis formation of cancer cells” (priority 2003, published 2009).
